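Briefly, cells in 96-well plates were exposed to five compound concentrations for 48 h, and endpoints were estimated by linear interpolation. The concentration for 50% growth inhibition is given as GI50. The concentration for full growth arrest is given as TGI.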
Legend:
Experiment in all cases: growth of human tumour cells (NCI), 48 h
CAKI-1 renal = test system: CAKI-1 renal
IGROV1 ovarian = test system: IGROV1 ovarian
MDA-MB-231 breast = test system: MDA-MB-231 breast
MDA-N = test system: MDA-N
NCI-H522 lung = test system: NCI-H522 lung
OVCAR-3 ovarian = test system: OVCAR-3 ovarian
OVCAR-4 ovarian = test system: OVCAR-4 ovarian
RPMI-8226 leukemia = test system: RPMI-8226 leukemia
HOP-92 NSCLC = test system: HOP-92 NSCLC

COc1ccc(O[C@H](CO)C[C@@H]2COC(C)(C)O2)cc1
TGI (CAKI-1 renal): > 100 µM
TGI (IGROV1 ovarian): > 100 µM
TGI (MDA-MB-231 breast): > 100 µM
TGI (MDA-N): > 100 µM
TGI (NCI-H522 lung): > 100 µM
TGI (OVCAR-3 ovarian): > 100 µM
TGI (OVCAR-4 ovarian): > 100 µM
TGI (RPMI-8226 leukemia): > 100 µM

CC(=O)OC12c3ccccc3C(c3ccccc31)C1C(=O)N(N=C(C)C)C(=O)C12 (configuration not stated)
TGI (CAKI-1 renal): > 100 µM
TGI (IGROV1 ovarian): > 100 µM
TGI (MDA-MB-231 breast): > 100 µM
TGI (MDA-N): > 100 µM
TGI (OVCAR-3 ovarian): > 100 µM
TGI (OVCAR-4 ovarian): > 100 µM
TGI (RPMI-8226 leukemia): > 100 µM

O=c1c2[nH]cnc2n(-c2ccccc2)c(=S)n1-c1ccccc1
TGI (CAKI-1 renal): > 100 µM
TGI (IGROV1 ovarian): > 100 µM
TGI (MDA-MB-231 breast): > 100 µM
TGI (NCI-H522 lung): > 100 µM
TGI (OVCAR-3 ovarian): > 100 µM
TGI (OVCAR-4 ovarian): > 100 µM
TGI (RPMI-8226 leukemia): > 100 µM

COC(=O)[C@H](C)NC(=O)[C@H](NS(=O)(=O)c1nc2ccccc2s1)c1ccccc1
TGI (CAKI-1 renal): 67.2 µM
TGI (HOP-92 NSCLC): 27.4 µM
TGI (IGROV1 ovarian): > 100 µM
TGI (MDA-MB-231 breast): 64.6 µM
TGI (OVCAR-4 ovarian): > 100 µM
TGI (RPMI-8226 leukemia): > 100 µM

C=CCOC(C)(C)C1=CCC(C)CC1 (configuration not stated)
TGI (CAKI-1 renal): > 100 µM
TGI (HOP-92 NSCLC): > 100 µM
TGI (IGROV1 ovarian): > 100 µM
TGI (MDA-N): > 100 µM
TGI (NCI-H522 lung): > 100 µM
TGI (OVCAR-3 ovarian): > 100 µM
TGI (OVCAR-4 ovarian): > 100 µM
TGI (RPMI-8226 leukemia): > 100 µM

COc1cc(C2c3cc4c(cc3[C@@H](Nc3ccc(F)cc3)C3COC[C@H]23)OCO4)cc(OC)c1O (some centres not stated)
TGI (IGROV1 ovarian): > 25 µM
TGI (MDA-MB-231 breast): 15.1 µM
TGI (MDA-N): > 25 µM
TGI (NCI-H522 lung): > 25 µM
TGI (OVCAR-4 ovarian): > 25 µM
TGI (RPMI-8226 leukemia): 13.1 µM

N#Cc1cc(F)cc(Oc2ccc(S(=O)(=O)C(F)F)c3c2CC(F)(F)[C@H]3O)c1
GI50 (CAKI-1 renal): 27.7 µM
TGI (CAKI-1 renal): > 100 µM
GI50 (HOP-92 NSCLC): 16 µM
TGI (HOP-92 NSCLC): 46.5 µM
GI50 (IGROV1 ovarian): 37.4 µM
TGI (IGROV1 ovarian): > 100 µM
GI50 (MDA-MB-231 breast): 22.3 µM
TGI (MDA-MB-231 breast): 73.2 µM
GI50 (NCI-H522 lung): 19.1 µM
TGI (NCI-H522 lung): 88.7 µM
GI50 (OVCAR-3 ovarian): 36.5 µM
TGI (OVCAR-3 ovarian): > 100 µM
GI50 (OVCAR-4 ovarian): 19 µM
TGI (OVCAR-4 ovarian): 91.7 µM
GI50 (RPMI-8226 leukemia): 19.2 µM
TGI (RPMI-8226 leukemia): 96.4 µM

Cc1cccc2c1nc1n2C(=O)c2ccccc2-1
TGI (CAKI-1 renal): > 100 µM
TGI (HOP-92 NSCLC): > 100 µM
TGI (IGROV1 ovarian): > 100 µM
TGI (MDA-N): > 100 µM
TGI (NCI-H522 lung): > 100 µM
TGI (OVCAR-3 ovarian): > 100 µM
TGI (OVCAR-4 ovarian): > 100 µM
TGI (RPMI-8226 leukemia): > 100 µM

COC(=O)c1c(O)ccc2c1c1c(n2Cc2ccc(OC)cc2)C(=O)c2ccccc2C1
TGI (CAKI-1 renal): 74.1 µM
TGI (IGROV1 ovarian): > 100 µM
TGI (MDA-MB-231 breast): > 100 µM
TGI (MDA-N): > 100 µM
TGI (OVCAR-3 ovarian): > 100 µM
TGI (OVCAR-4 ovarian): > 100 µM
TGI (RPMI-8226 leukemia): 31.5 µM

O=C1c2ccccc2-c2c1c1ccccc1c(=O)n2CCCNCCNCCCn1c2c(c3ccccc3c1=O)C(=O)c1ccccc1-2
GI50 (IGROV1 ovarian): < 0.0367 µM
TGI (IGROV1 ovarian): > 32.9 µM
GI50 (MDA-MB-231 breast): < 0.0381 µM
TGI (MDA-MB-231 breast): 0.437 µM
GI50 (NCI-H522 lung): 0.151 µM
GI50 (OVCAR-4 ovarian): 0.694 µM
TGI (OVCAR-4 ovarian): 4.56 µM
GI50 (RPMI-8226 leukemia): < 0.01 µM
TGI (RPMI-8226 leukemia): 0.221 µM

— PubChem BioAssay (NCI)
